The values below come from patent US20080064027A1, “TEL/Etv6-mediated inhibition of cell proliferation” (priority 2002, published 2008).

Series [1] relates to Stat3-ER-expressing A375 cells. Briefly: Cell proliferation after siRNA transfection. The series is classed as cell-based. The text has this:
This Example follows cell proliferation of Stat3-ER-expressing A375 cells treated with 4HT or a combination of 4HT and OSM, then cell proliferation in the absence or in the presence of siRNA to C/EBPd.
The following 21-mer oligoribonucleotide pairs were used:
This Example follows cell proliferation of Stat3-ER-expressing A375 cells treated with 4HT or a combination of 4HT and OSM, and in the absence or in the presence of siRNA to TEL.

The next series relates to C/EBPdelta mRNA. Briefly: C/EBPdelta expression (quantitative PCR). In kind it is cell-based. As to the method: A LacZ siRNA was used as control. The designed RNA oligonucleotides were ‘blasted’ against the GENBANK/EMBL databank to ensure gene specificity. The RNA oligonucleotides were obtained commercially. Transfection with expression vectors was carried out 1 day after the siRNA transfection using Effectene.

The subject of series [2] is Stat3 transcriptional activity. In words: Stat3 luciferase reporter assay with transfected TEL or TEL mutants. In kind it is cell-based. As to the method: In brief, TEL- or control, pcDNA3.1-transfected Stat3ERA375 cells, treated with 4HT were cultured in the presence or absence of Trichostatin A (TSA; 250 nM), a general HDAC inhibitor, essentially as described above.
Briefly, Stat3-ER-A375 cells and HEK 293 cells were transfected with the different TEL mutants, a Stat3 reporter plasmid and a Renilla plasmid.
On the technique in general: A reporter such as luciferase makes a cellular process visible.

The subject of the next series is Stat3. Briefly: TEL-Stat3 interaction, immunoprecipitation from nuclear extracts. The series is classed as binding. As for the experimental part: Since the TEL DNA-binding domain is not required for repression of Stat3 activity, this Example tests the possibility that TEL interacts directly with Stat3. Extracts from nuclear-enriched fractions were prepared from control or OSM-stimulated A375 cells. […] Endogenous TEL was present in Stat3 immunoprecipitates and the levels of TEL associating with Stat3 increased in OSM-treated compared to control-treated nuclear extracts. Conversely, Stat3 is present in a TEL-containing complex, pulled down through an immobilized GGM-containing oligonucleotide, which is a binding site for TEL.

Series [3] addresses Signal transducer and activator of transcription 3 (Stat3) (UniProt P40763). Briefly: cell-based or functional assay.
The subject of series [4] is Stat3 transcriptional activity. In words: APRE-driven luciferase reporter assay. To be noted: for Stat3-dependent transcription of luciferase, increase over control: TEL expression reduced by siRNA. The series is classed as cell-based. An excerpt: Luciferase assays are used to verify that the Stat3-ER construct is transcriptionally active. For this purpose, a luciferase reporter gene driven by the acute-phase response element (APRE) of the alpha 2-macroglobulin gene, a target for Stat1 and Stat3, was used.
Cells (2×10^6 cells/6 well dish) were transfected with a reporter plasmid containing four copies of acute phase responsible element (APRE) upstream of the minimal junB promoter linked to the luciferase gene (T Hirano, EMBO Journal, 1996, 15, 3651-3658), together with the internal control plasmid pRL-SV40 from Promega (Madison, Wis.). Twenty-four hours after the transfection, cells were either left unstimulated or stimulated with OSM (PeproTechEC, London, United Kingdom), 4-hydroxytamoxifen (4HT; Sigma, St. Louis, Mo.) or a combination of 4HT/OSM for 24 hours. The preparation of cell extracts and measurement of luciferase activities were carried out using the Dual-Luciferase reporter assay system from Promega (Madison, Wis.) in an Autolumat LB 953 (Berthold Technologies, Wildbad, Germany). Changes in firefly luciferase activity were expressed relative to Renilla luciferase activity in the same sample.

In series [5] the test system is TEL. In words: TEL expression in human cancer cell lines. In kind it is cell-based. An excerpt: TEL is usually expressed as two protein isoforms corresponding to initiation of TEL mRNA translation at ATG codon 1 and 43 (TEL and TEL43). […] To ascertain if TEL is a natural target of Stat3, we examined its expression in human cancer cell lines in response to OSM or IL-6. […] However, TEL expression was unchanged in other cell lines, including the prostate cancer cells PC3 and LNCaP and MDA-MB-468 breast cancer cells, even though it was expected that Stat3 is activated in each of these cell lines by IL-6/OSM treatment.

Series [6] concerns TEL. Briefly: TEL protein level by Western blotting. To be noted: 4HT or 4HT/OSM treated; relative to control LacZ siRNA. The series is classed as cell-based. As to the method:
Protein analysis was carried out by Western blotting. In brief, cells were harvested in NP40 extraction buffer (50 mM Tris (pH 7.5), 1 mM EGTA, 5 mM EDTA, 120 mM NaCl, 1% NP40, 2 mM sodium orthovanadate, 50 mM sodium fluoride, 20 mM ? -glycerophosphate, 10 μg/ml leupeptin, 10 μg/ml aprotinin, and 0.5 mM phenylmethylsulfonyl fluoride) for 5 min on ice. The lysates were clarified by centrifugation and protein concentrations were determined using the Bio-Rad protein assay reagent (Bio-Rad Laboratories Gmbh, Munich, Germany). For immunoprecipitaton, equal amounts of proteins were incubated with Stat3 (C-20) from Santa Cruz Biotechnology (Santa Cruz, Calif.) for 1 hr. Following SDS-polyacrylamide gel eletrophoresis (SDS-PAGE), proteins were blotted onto polyvinylidene difluoride membranes (Boehringer Mannheim, Mannheim, Germany). After blocking with 10% horse serum (Life Technologies, Inc.) in 50 mM Tris pH 7.5, 150 mM NaCl, 0.05% Tween 20, filters were probed with specific antibodies; c-TEL, Stat3 (C-20) from Santa Cruz Biotechnology (Santa Cruz, Calif.), phospho-Stat3 (Tyr 705) from Cell Signaling Technology (Beverly, Mass.). Proteins were visualized with peroxidase-coupled secondary antibodies using the enhanced chemiluminescence detection system (Amersham Pharmacia Biotech, Little Chalfont, United Kingdom).

Entries after “also recorded” stand apart in the source; their conditions may differ.

Sequence of Signal transducer and activator of transcription 3 (Stat3) (P40763 2-770 limits assumed): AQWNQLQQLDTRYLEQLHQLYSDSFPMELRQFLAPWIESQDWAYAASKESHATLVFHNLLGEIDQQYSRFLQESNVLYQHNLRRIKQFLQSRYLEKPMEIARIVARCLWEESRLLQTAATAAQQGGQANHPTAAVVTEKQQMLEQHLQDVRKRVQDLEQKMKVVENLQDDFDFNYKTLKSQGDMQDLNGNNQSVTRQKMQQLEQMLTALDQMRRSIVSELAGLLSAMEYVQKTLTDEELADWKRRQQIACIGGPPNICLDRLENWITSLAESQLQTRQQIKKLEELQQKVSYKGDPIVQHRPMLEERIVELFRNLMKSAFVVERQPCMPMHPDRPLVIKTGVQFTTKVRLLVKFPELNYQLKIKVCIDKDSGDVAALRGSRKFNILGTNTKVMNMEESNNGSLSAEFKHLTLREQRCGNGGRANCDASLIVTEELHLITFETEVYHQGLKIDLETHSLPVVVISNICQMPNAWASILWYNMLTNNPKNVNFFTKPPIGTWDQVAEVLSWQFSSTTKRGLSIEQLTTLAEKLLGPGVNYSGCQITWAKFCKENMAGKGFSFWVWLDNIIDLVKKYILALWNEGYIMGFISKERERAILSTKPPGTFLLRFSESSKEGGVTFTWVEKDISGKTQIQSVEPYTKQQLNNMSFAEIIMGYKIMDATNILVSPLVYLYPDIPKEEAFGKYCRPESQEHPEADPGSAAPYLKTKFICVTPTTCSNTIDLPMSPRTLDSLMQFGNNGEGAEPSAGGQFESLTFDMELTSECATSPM

For “C/EBPdelta siRNA: siRNA duplex nt 844-864, SEQ ID NO:2 and SEQ ID NO:3 (chain 1 GCAGCUGCCCAGCCCGCCCTT; chain 2 GGGCGGGCUGGGCAGCUGTT; combined DNA/RNA strands, DNA positions not given here, further chemistry not given here)”, the “inhibition of cell proliferation in the presence of siRNA” value in series [1] (about 40-45% with control siRNA) is “about 25%”. Further, in series [1] (average of three independent experiments, versus control siRNA), the “reduction of the inhibition of A375 cell proliferation” value was “about 40%”. Besides, the “C/EBPdelta expression in the presence of siRNA” value in the series on C/EBPdelta mRNA was “significantly reduced expression”.
Turning to “TEL: ets variant gene 6 (TEL oncogene) product, overexpressed by transfection”, in series [2] (in response to OSM, Stat3ER A375 cells and HEK293 cells), the “reduction in Stat3 activity by overexpression of TEL” value is above 70%. In the series on Stat3, the “interaction with Stat3” value was “still interact with Stat3”.
For “TEL/Etv6 (ets variant gene 6; TEL oncogene) (from UniProt P41212 1-452)”, the Stat3 activity (APRE luciferase reporter) in response to OSM on overexpression of TEL in series [3] was above 70 % reduction.
With `CC(/C=C/C(=O)NO)=C\[C@@H](C)C(=O)c1ccc(N(C)C)cc1` [TSA, Trichostatin A, reference compound], in series [2] (TSA 250 nM, TEL-transfected 4HT-stimulated Stat3ERA375 cells), the “effect on repression of Stat3 activity by TEL” value is “prevented the repression of Stat3 activity by TEL”. Moreover, the “effect on Stat3 mediated transcriptional activity” value in series [2] (TSA 250 nM, pcDNA3.1-transfected cells, 4HT) is “had no effects”.
On to interleukin 6 [IL-6], for which the “cooperative effect with 4HT on luciferase activity” value in series [4] (Stat3-ER-expressing A375 cells) is reported as “same cooperative effect with 4HT”. In addition, the TEL expression entry is listed as “unchanged” in the series on TEL [5] (PC3, LNCaP prostate cancer cells and MDA-MB-468 breast cancer cells); “significantly increased” in the series with TEL [5] (T47D and SKBr-3 breast cancer cells, DU145 prostate carcinoma cells, HepG2 hepatoma-derived cells).
In the case of “TEL siRNA: siRNA nt 540-560, SEQ ID NO:4 and SEQ ID NO:5 (chain 1 CCCUCCCACCAUUGAACUGTT; chain 2 CAGUUCAAUGGUGGGAGGGTT; combined DNA/RNA strands, DNA positions not given here, further chemistry not given here)”, in series [1] (4HT and OSM treated Stat3ER A375 cells), the “anti-proliferative effects of Stat3 versus control LacZ siRNA treated cultures” value is on record as “stronger”. For the same molecule, the “Stat3-mediated inhibition of A375 cell proliferation in the presence of TEL siRNA” value in series [1] (about 28% without TEL siRNA) is listed as “about 40%”. The “Stat3-dependent transcription of luciferase, increase over control” value in series [4] (induced by 4HT) is reported as around 16 fold; in series [4] (induced by OSM) it was around 18 fold. Moreover, the “TEL expression in the presence of TEL siRNA” value in the series with TEL [6] is on record as “largely prevented; also recorded: strongly decreased”.

B1: TEL delta 442-452: TEL deletion mutant (protein)
chain: MSETPAQCSIKQERISYTPPESPVPSYASSTPLHVPVPRALRMEEDSIRLPAHLRLQPIYWSRDDVAQWLKWAENEFSLRPIDSNTFEMNGKALLLLTKEDFRYRSPHSGDVLYELLQHILKQRKPRILFSPFFHPGNSIHTQPEVILHQNHEEDNCVQRTPRPSVDNVHHNPPTIELLHRSRSPITTNHRPSPDPEQRPLRSPLDNMIRRLSPAERAQGPRPHQENNHQESYPLSVSPMENNHCPASSESHPKPSSPRQESTRVIQLMPSPIMHPLILNPRHSVDFKQSRLSEDGLHREGKPINLSHREDLAYMNHIMVSVSPPEEHAMPIGRIADCRLLWDYVYQLLSDSRYENFIRWEDKESKIFRIVDPNGLARLWGNHKNRTNMTYEKMSRALRHYYKLNIIRKEPGQRLLFRFMKTPDEIMSGRTDRLEHLESQE
With B1, the “repression of 4HT- or OSM-induced Stat3 transcriptional activity” value in series [2] (Stat3-ER-A375 cells and HEK 293 cells, 24 h) is given as “is not able to repress Stat3 activity”.
